Results published in US11702419B2, “Heterocyclic compound and use thereof” (Takeda Pharmaceutical Company Limited, priority 2018, dated 2023).

target: T1, NMDA receptor composed of four subunits consisting of two sets of heterodimers of NR1 and NR2B (human GRIN1 and GRIN2B-expressing HEK293 cells) (Homo sapiens, UniProt Q13224); assay: NR2B Ca2+ influx assay; assay type: cell-based; conditions: 10 μM compound, glutamic acid/glycine-induced Ca2+ influx, FLIPR, read-out: inhibitory rate (10 μM compound concentration)
T1 construct: host or cells: HEK293 (tetracycline-inducible expression)
T1 sequence (Q13224 27-1484, other chains not shown): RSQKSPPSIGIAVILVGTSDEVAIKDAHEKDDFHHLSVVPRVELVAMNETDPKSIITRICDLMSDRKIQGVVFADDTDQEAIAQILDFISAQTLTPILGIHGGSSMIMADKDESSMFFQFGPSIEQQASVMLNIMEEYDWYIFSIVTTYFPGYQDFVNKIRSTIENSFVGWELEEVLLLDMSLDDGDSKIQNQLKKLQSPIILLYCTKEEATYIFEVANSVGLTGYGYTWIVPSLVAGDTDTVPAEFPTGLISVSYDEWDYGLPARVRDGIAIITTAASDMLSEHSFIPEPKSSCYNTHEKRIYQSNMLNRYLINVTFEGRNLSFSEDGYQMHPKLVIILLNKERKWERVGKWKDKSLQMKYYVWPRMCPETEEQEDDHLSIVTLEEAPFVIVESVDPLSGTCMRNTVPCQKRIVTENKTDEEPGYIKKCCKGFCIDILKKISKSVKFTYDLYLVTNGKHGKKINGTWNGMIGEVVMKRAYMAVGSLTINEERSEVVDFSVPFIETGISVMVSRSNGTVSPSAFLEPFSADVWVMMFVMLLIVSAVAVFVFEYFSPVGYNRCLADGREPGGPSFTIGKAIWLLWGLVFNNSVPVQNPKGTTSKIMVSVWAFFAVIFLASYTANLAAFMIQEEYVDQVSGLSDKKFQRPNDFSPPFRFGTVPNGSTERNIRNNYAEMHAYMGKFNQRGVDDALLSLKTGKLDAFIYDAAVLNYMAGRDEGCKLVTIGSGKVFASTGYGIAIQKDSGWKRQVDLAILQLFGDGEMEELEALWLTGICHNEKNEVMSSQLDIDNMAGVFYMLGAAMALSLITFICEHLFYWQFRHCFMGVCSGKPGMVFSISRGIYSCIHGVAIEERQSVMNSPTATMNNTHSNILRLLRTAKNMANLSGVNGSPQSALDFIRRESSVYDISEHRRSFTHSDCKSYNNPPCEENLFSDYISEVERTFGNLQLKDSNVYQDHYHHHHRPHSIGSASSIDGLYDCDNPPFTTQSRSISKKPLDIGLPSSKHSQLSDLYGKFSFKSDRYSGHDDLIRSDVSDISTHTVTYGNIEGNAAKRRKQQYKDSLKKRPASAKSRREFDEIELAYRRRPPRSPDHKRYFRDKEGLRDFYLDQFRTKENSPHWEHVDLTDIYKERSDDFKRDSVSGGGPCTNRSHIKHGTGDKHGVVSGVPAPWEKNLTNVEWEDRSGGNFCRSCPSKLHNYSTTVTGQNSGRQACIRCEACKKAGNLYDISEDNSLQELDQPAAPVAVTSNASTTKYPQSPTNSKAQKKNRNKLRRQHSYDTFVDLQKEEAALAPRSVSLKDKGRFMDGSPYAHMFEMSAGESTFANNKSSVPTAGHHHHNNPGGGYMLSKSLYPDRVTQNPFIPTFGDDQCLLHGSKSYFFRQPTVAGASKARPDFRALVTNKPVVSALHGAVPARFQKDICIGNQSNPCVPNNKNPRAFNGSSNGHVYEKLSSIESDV
Method: In order to confirm an “antagonistic action on an NMDA receptor containing the NR2B subunit” which the compound of the present invention has, inhibitory effect on the NMDA receptor activation was evaluated using “NMDA receptor composed of four subunits consisting of two sets of heterodimers of NR1 and NR2B”-expressing human fetal renal cells, specifically human glutamate ionotropic receptor NMDA type subunit 1 (GRIN1) and human glutamate ionotropic receptor NMDA type subunit 2B (GRIN2B)-expressing HEK293 cells.
As an index of the NMDA receptor activation, intracellular calcium ion (Ca^2+) influx caused by bonding of glycine and glutamate to NR1 and NR2B respectively was used. HEK293 cells were purchased from ChanTest. The cells were cultured in a DMEM/F-12 (COSMO BIO, 10-092-CM) medium containing 10% FBS (fetal bovine serum, AusGene), 100 units/mL penicillin, 100 μg/mL streptomycin, 500 μg/mL neomycin, 100 μg/mL Zeocin and 5 μg/mL Blasticidin at 37° C., 5% CO2. The cells were detached from flask with trypsin the day before the assay, suspended in a seeding medium (DMEM (Invitrogen, 31053) containing 10% FBS, 100 units/mL penicillin and 100 μg/mL streptomycin) at 8×10^5 cells/mL, seeded by 25 μL per well in a 384-well plate (Falcon, 356663) at 20000 cells/well, and cultured overnight in an incubator. On the day of the assay, tetracycline (Wako Pure Chemical Industries, 209-16561) was diluted with the seeding medium at 2 μg/mL, and the dilution was added at 25 μL/well to the plate seeded with the cells, and the cells were cultured for 2 hr in an incubator. Thereafter, the medium was removed, and the cells were washed with 50 μL/well of assay buffer (137 mM NaCl, 4 mM KCl, 1.8 mM CaCl2, 10 mM HEPES (pH 7.2), 10 mM Glucose, and 0.1% BSA). Then, a loading buffer (assay buffer containing 2.5 μM Fluo-4AM, 2 mM Amaranth and 1 mM Tartrazine) was added thereto at 25 μL/well, and loading was performed in the incubator for 30 min, and then at room temperature for 15 min. The test compound was diluted with the above-mentioned assay buffer so as to adjust the concentration to 30 μM, the obtained solution (25 μL) was added thereto (the final concentration 10 μM), and the cells were stood for 15 min at room temperature. Using FLIPR (Molecular Devices), 25 μL of an assay buffer containing 30 μM glutamic acid and 30 μM glycine was added thereto, and the fluorescence signal was measured every 3 seconds for 5 min. The relative activity value (inhibitory rate) was calculated when the cumulative total value of the fluorescence value of a well added with a buffer free of glutamic acid and glycine, relative to the cumulative total value of the fluorescence value of each well are regarded as 100% inhibition. The obtained value was evaluated as an inhibitory activity.

Compared with `Cn1ccn2ncc(CNC(=O)c3ccc(C(F)(F)F)c(F)c3)c12` [Example 67, 3-fluoro-N-((1-methyl-1H-imidazo[1,2-b]pyrazol-7-yl)methyl)-4-(trifluoromethyl)benzamide], `Cn1ccn2ncc(CNC(=O)c3ccc(Cl)c(F)c3)c12` [Example 63, 4-chloro-3-fluoro-N-((1-methyl-1H-imidazo[1,2-b]pyrazol-7-yl)methyl)benzamide] is lower in inhibition at 10 µM: 98% for the first, 96% for the second.

Compared with `COc1c(F)cc(C(=O)NCc2cnn3ncccc23)cc1F` [Example 12, 3,5-difluoro-4-methoxy-N-(pyrazolo[1,5-b]pyridazin-3-ylmethyl)benzamide], `COc1c(F)cc(C(=O)NCc2nnn3ccccc23)cc1F` [Example 41, 3,5-difluoro-4-methoxy-N-([1,2,3]triazolo[1,5-a]pyridin-3-ylmethyl)benzamide] is lower in inhibition at 10 µM: 97% for the first, 86% for the second.

First: Cc1nn2ccn(C)c2c1CNC(=O)c1cnc(OC(F)F)c(F)c1 [Example 73, 6-(difluoromethoxy)-N-[(1,6-dimethyl-1H-imidazo[1,2-b]pyrazol-7-yl)methyl]-5-fluoropyridine-3-carboxamide]
Second: COc1ncc(C(=O)NCc2cnn3ccn(C)c23)cc1F [Example 61, 5-fluoro-6-methoxy-N-((1-methyl-1H-imidazo[1,2-b]pyrazol-7-yl)methyl)nicotinamide]
The inhibition at 10 µM of the first is higher: 93% for the first, 88% for the second.

Going from `O=C(NCc1nnn2ccccc12)c1ccc(C(F)(F)F)c(F)c1` [Example 68, 3-fluoro-N-([1,2,3]triazolo[1,5-a]pyridin-3-ylmethyl)-4-(trifluoromethyl)benzamide] to `O=C(NCc1nnn2ccncc12)c1ccc(OC(F)(F)F)c(F)c1` [Example 42, 3-fluoro-N-([1,2,3]triazolo[1,5-a]pyrazin-3-ylmethyl)-4-(trifluoromethoxy)benzamide], the inhibition at 10 µM rises from 83% to 94%.

Going from `Cc1nn2ncc(CNC(=O)c3ccc(OC(F)(F)F)c(F)c3)c2n1C` [Example 71, N-[(1,2-dimethyl-1H-pyrazolo[1,5-b][1,2,4]triazol-7-yl)methyl]-3-fluoro-4-(trifluoromethoxy)benzamide] to `Cc1ccc2c(CNC(=O)c3ccc(OC(F)(F)F)c(F)c3)cnn2n1` [Example 11, 3-fluoro-N-((6-methylpyrazolo[1,5-b]pyridazin-3-yl)methyl)-4-(trifluoromethoxy)benzamide], the inhibition at 10 µM rises from 97% to 98%.

First: O=C(NCc1nnn2ncccc12)c1ccc(OC(F)(F)F)c(Cl)c1 [Example 40, 3-chloro-N-([1,2,3]triazolo[1,5-b]pyridazin-3-ylmethyl)-4-(trifluoromethoxy)benzamide]
Second: Cc1ccnn2nnc(CNC(=O)c3ccc(OC(F)(F)F)c(F)c3)c12 [Example 52, 3-fluoro-N-((4-methyl[1,2,3]triazolo[1,5-b]pyridazin-3-yl)methyl)-4-(trifluoromethoxy)benzamide]
The inhibition at 10 µM of the first is higher: 98% for the first, 95% for the second.

Compared with `Cc1nn2ncccc2c1CNC(=O)c1ccc(OC(F)(F)F)c(F)c1` [Example 10, 3-fluoro-N-((2-methylpyrazolo[1,5-b]pyridazin-3-yl)methyl)-4-(trifluoromethoxy)benzamide], `Cc1nn2cnccc2c1CNC(=O)c1ccc(OC(F)(F)F)c(F)c1` [Example 48, 3-fluoro-N-((2-methylpyrazolo[1,5-c]pyrimidin-3-yl)methyl)-4-(trifluoromethoxy)benzamide] is lower in inhibition at 10 µM: 97% for the first, 90% for the second.

Compared with `O=C(NCc1cnn2ccn(CC(F)F)c12)c1cnc(OC(F)F)c(Cl)c1` [Example 80, 5-chloro-N-[{1-(2,2-difluoroethyl)-1H-imidazo[1,2-b]pyrazol-7-yl]methyl}-6-(difluoromethoxy)pyridine-3-carboxamide], `Cc1nn2ncc(CNC(=O)c3cnc(OC(F)F)c(Cl)c3)c2n1C` [Example 72, 5-chloro-6-(difluoromethoxy)-N-[(1,2-dimethyl-1H-pyrazolo[1,5-b][1,2,4]triazol-7-yl)methyl]pyridine-3-carboxamide] is higher in inhibition at 10 µM: 91% for the first, 95% for the second.

Compared with `O=C(NCc1cnn2ncccc12)c1ccc(OC(F)(F)F)c(F)c1` [Example 5, 3-fluoro-N-(pyrazolo[1,5-b]pyridazin-3-ylmethyl)-4-(trifluoromethoxy)benzamide], `O=C(NCc1cnn2ncccc12)c1ccc(OC(F)F)c(F)c1` [Example 15, 4-(difluoromethoxy)-3-fluoro-N-(pyrazolo[1,5-b]pyridazin-3-ylmethyl)benzamide] is lower in inhibition at 10 µM: 99% for the first, 98% for the second.

Compared with `COCc1nn2ncccc2c1CNC(=O)c1cnc(OC(F)F)c(F)c1` [Example 31, 6-(difluoromethoxy)-5-fIuoro-N-((2-(methoxymethyl)pyrazolo[1,5-b]pyridazin-3-yl)methyl)nicotinamide], `CCOc1nn2ncccc2c1CNC(=O)c1cnc(OC(F)F)c(F)c1` [Example 24, 6-(difluoromethoxy)-N-((2-ethoxypyrazolo[1,5-b]pyridazin-3-yl)methyl)-5-fluoronicotinamide] is lower in inhibition at 10 µM: 84% for the first, 70% for the second.

Going from `Cc1cnn2ncc(CNC(=O)c3cnc(OC(F)F)c(F)c3)c2c1` [Example 39, 6-(difluoromethoxy)-5-fluoro-N-((5-methylpyrazolo[1,5-b]pyridazin-3-yl)methyl)nicotinamide] to `Cc1cnn2ncc(CNC(=O)c3ccc(OC(F)F)c(F)c3)c2c1` [Example 38, 4-(difluoromethoxy)-3-fluoro-N-((5-methylpyrazolo[1,5-b]pyridazin-3-yl)methyl)benzamide], the inhibition at 10 µM rises from 97% to 98%.

Going from `Cc1nn2ncccc2c1CNC(=O)c1cnc(OC(F)F)c(Cl)c1` [Example 46, 5-chloro-6-(difluoromethoxy)-N-((2-methylpyrazolo[1,5-b]pyridazin-3-yl)methyl)nicotinamide] to `O=C(NCc1c(C(F)F)nn2ncccc12)c1cnc(OC(F)F)c(F)c1` [Example 43, 6-(difluoromethoxy)-N-((2-(difluoromethyl)pyrazolo[1,5-b]pyridazin-3-yl)methyl)-5-fluoronicotinamide], the inhibition at 10 µM falls from 96% to 95%.

First: O=C(NCc1cnn2ccn(CC(F)F)c12)c1ccc(OC(F)(F)F)c(F)c1 [Example 81, N-{[1-(2,2-difluoroethyl)-1H-imidazo[1,2-b]pyrazol-7-yl]methyl}-3-fluoro-4-(trifluoromethoxy)benzamide]
Second: O=C(NCc1cnn2ccncc12)c1ccc(OC(F)(F)F)c(F)c1 [Example 16, 3-fluoro-N-(pyrazolo[1,5-a]pyrazin-3-ylmethyl)-4-(trifluoromethoxy)benzamide]
The inhibition at 10 µM of the first is lower: 96% for the first, 97% for the second.

Going from `O=C(NCc1c(C2CC2)nn2ncccc12)c1ccc(OC(F)F)c(F)c1` [Example 29, N-((2-cyclopropylpyrazolo[1,5-b]pyridazin-3-yl)methyl)-4-(difluoromethoxy)-3-fluorobenzamide] to `O=C(NCc1cnn2ncccc12)c1ccc(OC(F)F)c(Cl)c1` [Example 7, 3-chloro-4-(difluoromethoxy)-N-(pyrazolo[1,5-b]pyridazin-3-ylmethyl)benzamide], the inhibition at 10 µM rises from 89% to 98%.

Compared with `O=C(NCc1cnn2ccncc12)c1cnc(OC(F)F)c(F)c1` [Example 45, 6-(difluoromethoxy)-5-fluoro-N-(pyrazolo[1,5-a]pyrazin-3-ylmethyl)nicotinamide], `Cc1ccnn2ncc(CNC(=O)c3cnc(OC(F)F)c(F)c3)c12` [Example 37, 6-(difluoromethoxy)-5-fluoro-N-((4-methylpyrazolo[1,5-b]pyridazin-3-yl)methyl)nicotinamide] is higher in inhibition at 10 µM: 92% for the first, 96% for the second.

Going from `Cn1ccn2ncc(CNC(=O)c3ccc(OC(F)(F)F)nc3)c12` [Example 64, N-((1-methyl-1H-imidazo[1,2-b]pyrazol-7-yl)methyl)-6-(trifluoromethoxy)nicotinamide] to `O=C(NCc1cnn2nccnc12)c1ccc(OC(F)(F)F)c(F)c1` [Example 47, 3-fluoro-N-(pyrazolo[1,5-b][1,2,4]triazin-8-ylmethyl)-4-(trifluoromethoxy)benzamide], the inhibition at 10 µM falls from 96% to 93%.
